Columns and labels:
HCT116 = test system: HCT116; design: method as in Org. Biomol. Chem. 2005, 3, 2657-2660; conditions: ref Org. Biomol. Chem. 2005, 3, 2657-2660; cited from earlier work
[1] = target: T1, highly purified tubulin from porcine brain (Sus scrofa, UniProt P02554); experiment: Tubulin polymerization assay; assay type: biochemical; conditions: CA-4 0.5-4 µM, 6i 0.1-8.0 µM, paclitaxel 5.0 µM, 37 °C
T1 construct: highly purified tubulin from porcine brain; purchased Cytoskeleton BK011P; host or cells: porcine brain (tissue-purified)
Protocol: This assay uses highly purified tubulin from porcine brain.
The reaction was monitored at 37 °C.
(§1) Tubulin polymerization assay[33] was conducted with reagents as described in the kit manufacturer (Cytoskeleton, Cat.#BK011P) in a 96-well plate. In brief, tubulin was re-suspended in ice-cold G-PEM buffer (80 mM PIPES, 2 mM MgCl2, 0.5 mM EGTA, 1 mM GTP, 20% (v/v) glycerol) and added to wells on a 96-well plate containing the designated concentration of drugs or vehicle. Samples were mixed well, and tubulin assembly was monitored (emission wavelength: 450 ± 20 nm; excitation wavelength: 360 ± 20 nm) at 1 min intervals for 90 min at 37 °C in a SpectraMax 340PC spectrophotometer (Biotek Synergy HT, Winooskin, VT, USA). IC50 values were calculated from data at the 20 min time point using GraphPad Prism software. Experiments were repeated three times.
as §1, with “assay” for “assay[33]”, “450±20” for “450 ± 20”, “360±20” for “360 ± 20”, “timepoint” for “time point”

T1 sequence (P02554 whole entry): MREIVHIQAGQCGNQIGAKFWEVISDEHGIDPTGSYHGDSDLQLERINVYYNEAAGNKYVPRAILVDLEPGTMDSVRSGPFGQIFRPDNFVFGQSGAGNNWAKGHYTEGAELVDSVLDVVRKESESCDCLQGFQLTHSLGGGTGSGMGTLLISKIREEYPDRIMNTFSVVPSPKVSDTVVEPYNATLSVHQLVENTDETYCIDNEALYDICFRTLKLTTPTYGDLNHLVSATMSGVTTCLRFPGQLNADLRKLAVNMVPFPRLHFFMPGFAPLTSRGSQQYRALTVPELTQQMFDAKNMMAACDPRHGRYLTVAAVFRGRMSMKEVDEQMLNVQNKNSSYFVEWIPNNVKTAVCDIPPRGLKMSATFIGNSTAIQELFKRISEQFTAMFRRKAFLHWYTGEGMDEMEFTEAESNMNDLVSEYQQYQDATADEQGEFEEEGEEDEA
T1 sequence (P02550 whole entry partner): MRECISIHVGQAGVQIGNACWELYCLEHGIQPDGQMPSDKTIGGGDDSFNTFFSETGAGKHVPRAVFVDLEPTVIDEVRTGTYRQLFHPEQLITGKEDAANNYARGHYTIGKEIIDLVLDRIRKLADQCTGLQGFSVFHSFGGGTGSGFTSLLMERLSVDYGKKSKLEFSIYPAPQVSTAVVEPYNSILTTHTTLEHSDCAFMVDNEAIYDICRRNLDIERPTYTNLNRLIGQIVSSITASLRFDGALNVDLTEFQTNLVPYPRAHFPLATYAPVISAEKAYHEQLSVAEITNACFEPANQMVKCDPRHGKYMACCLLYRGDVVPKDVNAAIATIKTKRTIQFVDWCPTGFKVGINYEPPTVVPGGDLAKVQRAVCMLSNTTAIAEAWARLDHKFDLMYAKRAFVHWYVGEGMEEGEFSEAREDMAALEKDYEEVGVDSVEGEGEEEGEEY

Row | Structure (SMILES) | IC50 (HCT116) [nM] | effect on tubulin polymerization in words [1]
1 | COc1ccc(/C=C/C=C\c2cc(OC)c(OC)c(OC)c2)cc1O [vinylogous CA-4 (Z,E), vinylogous CA-4] | 163 | –
2 | CC(=O)O[C@H]1C(=O)[C@@]2(C)[C@H]([C@H](OC(=O)c3ccccc3)[C@]3(O)C[C@H](OC(=O)[C@H](O)[C@@H](NC(=O)c4ccccc4)c4ccccc4)C(C)=C1C3(C)C)[C@]1(OC(C)=O)CO[C@@H]1C[C@@H]2O [paclitaxel, reference compound] | – | could distinctly promoted this process

— PMC5607265, “Design, synthesis and structure-activity relationship of 3,6-diaryl-7H-[1,2,4]triazolo[3,4-b][1,3,4]thiadiazines as novel tubulin inhibitors” (Scientific Reports, 2017)
